In assay [1] the target is T1, Aurora kinase A (Homo sapiens, UniProt O14965).
T1 sequence (O14965 whole entry): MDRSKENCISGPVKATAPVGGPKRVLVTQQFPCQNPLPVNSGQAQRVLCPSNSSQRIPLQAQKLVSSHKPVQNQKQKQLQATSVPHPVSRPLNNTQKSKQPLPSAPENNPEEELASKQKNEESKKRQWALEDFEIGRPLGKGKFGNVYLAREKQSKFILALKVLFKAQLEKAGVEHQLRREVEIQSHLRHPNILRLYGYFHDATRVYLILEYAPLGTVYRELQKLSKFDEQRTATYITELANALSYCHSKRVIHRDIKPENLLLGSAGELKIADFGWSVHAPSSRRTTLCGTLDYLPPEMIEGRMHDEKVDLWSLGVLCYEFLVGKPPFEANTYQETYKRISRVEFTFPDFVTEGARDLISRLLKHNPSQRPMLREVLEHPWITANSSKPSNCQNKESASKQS

Assay [2] addresses Calcium/calmodulin-dependent protein kinase type II subunit delta (Homo sapiens, UniProt Q13557).
Assay [3] has as its target Cyclin-dependent kinase 7 (Homo sapiens, UniProt P50613).
For assay [4], the target named is Casein kinase I isoform epsilon (Homo sapiens, UniProt P49674).
Casein kinase I isoform epsilon, sequence (P49674 whole entry, canonical isoform): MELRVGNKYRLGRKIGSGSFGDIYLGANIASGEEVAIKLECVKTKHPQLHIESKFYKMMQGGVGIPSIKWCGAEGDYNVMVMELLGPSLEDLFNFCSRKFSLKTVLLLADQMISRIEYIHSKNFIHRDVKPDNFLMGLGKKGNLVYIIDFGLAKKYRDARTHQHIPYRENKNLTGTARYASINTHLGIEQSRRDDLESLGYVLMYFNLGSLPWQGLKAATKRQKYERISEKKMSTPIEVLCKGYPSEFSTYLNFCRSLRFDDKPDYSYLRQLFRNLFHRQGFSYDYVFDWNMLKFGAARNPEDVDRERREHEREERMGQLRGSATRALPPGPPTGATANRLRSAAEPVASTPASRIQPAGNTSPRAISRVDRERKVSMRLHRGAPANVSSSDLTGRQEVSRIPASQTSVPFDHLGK
In assay [5] the target is T2, Eukaryotic translation initiation factor 5B (Homo sapiens, UniProt O60841).
T2 sequence (O60841 whole entry): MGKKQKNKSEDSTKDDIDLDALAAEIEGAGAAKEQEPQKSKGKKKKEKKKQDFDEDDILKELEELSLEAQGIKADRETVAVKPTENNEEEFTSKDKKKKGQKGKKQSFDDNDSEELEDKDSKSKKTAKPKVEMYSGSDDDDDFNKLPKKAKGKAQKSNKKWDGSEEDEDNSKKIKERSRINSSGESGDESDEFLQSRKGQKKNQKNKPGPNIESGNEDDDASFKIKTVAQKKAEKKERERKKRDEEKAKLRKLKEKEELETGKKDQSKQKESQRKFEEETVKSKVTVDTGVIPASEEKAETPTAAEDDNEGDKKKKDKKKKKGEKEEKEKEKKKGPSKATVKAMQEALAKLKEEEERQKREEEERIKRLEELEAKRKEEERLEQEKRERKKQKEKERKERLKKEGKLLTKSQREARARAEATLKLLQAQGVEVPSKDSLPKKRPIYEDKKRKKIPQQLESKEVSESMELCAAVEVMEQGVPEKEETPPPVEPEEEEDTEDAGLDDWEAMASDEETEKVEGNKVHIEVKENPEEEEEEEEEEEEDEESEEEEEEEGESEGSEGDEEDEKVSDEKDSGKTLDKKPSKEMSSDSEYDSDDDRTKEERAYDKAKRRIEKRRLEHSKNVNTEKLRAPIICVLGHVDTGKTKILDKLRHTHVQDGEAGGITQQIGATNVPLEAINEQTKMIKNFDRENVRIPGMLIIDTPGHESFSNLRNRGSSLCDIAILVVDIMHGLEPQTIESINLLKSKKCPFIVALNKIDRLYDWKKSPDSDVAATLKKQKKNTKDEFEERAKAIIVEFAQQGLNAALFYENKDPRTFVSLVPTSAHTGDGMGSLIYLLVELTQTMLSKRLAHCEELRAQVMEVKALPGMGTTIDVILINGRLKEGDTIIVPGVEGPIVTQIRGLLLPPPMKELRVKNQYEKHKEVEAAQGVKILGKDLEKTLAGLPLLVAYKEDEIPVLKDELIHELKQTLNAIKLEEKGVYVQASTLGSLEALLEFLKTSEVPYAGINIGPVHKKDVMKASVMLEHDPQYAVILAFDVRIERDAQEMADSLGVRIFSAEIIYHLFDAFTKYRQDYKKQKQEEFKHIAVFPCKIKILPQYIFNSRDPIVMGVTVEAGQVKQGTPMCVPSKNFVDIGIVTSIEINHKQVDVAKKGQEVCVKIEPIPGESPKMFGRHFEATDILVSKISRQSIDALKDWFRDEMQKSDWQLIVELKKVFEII

The target of assay [6] is Serine/threonine-protein kinase/endoribonuclease IRE1 (Homo sapiens, UniProt O75460).
Serine/threonine-protein kinase/endoribonuclease IRE1, sequence (O75460 whole entry): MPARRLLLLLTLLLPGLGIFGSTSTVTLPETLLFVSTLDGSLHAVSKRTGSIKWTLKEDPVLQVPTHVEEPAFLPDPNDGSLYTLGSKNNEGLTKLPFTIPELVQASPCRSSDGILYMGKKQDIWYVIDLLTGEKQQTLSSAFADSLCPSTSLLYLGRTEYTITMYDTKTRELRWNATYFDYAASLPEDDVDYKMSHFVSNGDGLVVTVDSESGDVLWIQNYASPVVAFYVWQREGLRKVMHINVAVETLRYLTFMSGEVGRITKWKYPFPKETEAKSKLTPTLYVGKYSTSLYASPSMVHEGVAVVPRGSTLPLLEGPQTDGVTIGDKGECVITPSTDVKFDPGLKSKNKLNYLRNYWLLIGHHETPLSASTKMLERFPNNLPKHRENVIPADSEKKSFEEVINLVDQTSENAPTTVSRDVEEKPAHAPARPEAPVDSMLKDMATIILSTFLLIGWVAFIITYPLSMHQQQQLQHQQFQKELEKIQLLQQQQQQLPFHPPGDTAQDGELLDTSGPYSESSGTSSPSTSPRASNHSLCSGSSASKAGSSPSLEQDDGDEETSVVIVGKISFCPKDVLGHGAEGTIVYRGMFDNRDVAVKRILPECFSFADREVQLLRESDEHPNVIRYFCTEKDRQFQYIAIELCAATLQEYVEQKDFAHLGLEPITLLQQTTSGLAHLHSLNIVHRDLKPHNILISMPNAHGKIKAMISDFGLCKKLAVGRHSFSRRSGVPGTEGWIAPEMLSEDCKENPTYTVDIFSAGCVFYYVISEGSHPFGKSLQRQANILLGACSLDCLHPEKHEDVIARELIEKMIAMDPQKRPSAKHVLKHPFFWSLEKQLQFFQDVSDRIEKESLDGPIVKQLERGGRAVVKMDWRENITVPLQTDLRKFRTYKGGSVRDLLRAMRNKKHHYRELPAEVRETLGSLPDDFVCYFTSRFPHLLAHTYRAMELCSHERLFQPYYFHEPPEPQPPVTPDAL
Assay [7] addresses Putative heat shock protein HSP 90-beta 2 (Homo sapiens, UniProt Q58FF8).
Assay [8] has as its target T3, Phosphorylase b kinase gamma catalytic chain, liver/testis isoform (Homo sapiens, UniProt P15735).
T3 sequence (P15735 whole entry): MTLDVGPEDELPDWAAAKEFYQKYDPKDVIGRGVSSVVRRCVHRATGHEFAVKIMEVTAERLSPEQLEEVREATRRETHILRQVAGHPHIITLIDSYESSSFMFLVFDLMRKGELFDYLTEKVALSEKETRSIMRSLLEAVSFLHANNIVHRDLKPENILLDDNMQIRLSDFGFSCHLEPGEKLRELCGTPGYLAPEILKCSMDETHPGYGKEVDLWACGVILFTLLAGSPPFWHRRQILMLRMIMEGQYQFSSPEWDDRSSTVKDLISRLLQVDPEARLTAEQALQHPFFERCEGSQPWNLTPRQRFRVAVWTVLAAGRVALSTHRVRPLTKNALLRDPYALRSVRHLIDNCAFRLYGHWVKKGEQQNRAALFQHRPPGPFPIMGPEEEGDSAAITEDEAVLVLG

The target in assay [9] is Serine/threonine-protein kinase N1 (Homo sapiens, UniProt Q16512).
Serine/threonine-protein kinase N1, sequence (Q16512 whole entry): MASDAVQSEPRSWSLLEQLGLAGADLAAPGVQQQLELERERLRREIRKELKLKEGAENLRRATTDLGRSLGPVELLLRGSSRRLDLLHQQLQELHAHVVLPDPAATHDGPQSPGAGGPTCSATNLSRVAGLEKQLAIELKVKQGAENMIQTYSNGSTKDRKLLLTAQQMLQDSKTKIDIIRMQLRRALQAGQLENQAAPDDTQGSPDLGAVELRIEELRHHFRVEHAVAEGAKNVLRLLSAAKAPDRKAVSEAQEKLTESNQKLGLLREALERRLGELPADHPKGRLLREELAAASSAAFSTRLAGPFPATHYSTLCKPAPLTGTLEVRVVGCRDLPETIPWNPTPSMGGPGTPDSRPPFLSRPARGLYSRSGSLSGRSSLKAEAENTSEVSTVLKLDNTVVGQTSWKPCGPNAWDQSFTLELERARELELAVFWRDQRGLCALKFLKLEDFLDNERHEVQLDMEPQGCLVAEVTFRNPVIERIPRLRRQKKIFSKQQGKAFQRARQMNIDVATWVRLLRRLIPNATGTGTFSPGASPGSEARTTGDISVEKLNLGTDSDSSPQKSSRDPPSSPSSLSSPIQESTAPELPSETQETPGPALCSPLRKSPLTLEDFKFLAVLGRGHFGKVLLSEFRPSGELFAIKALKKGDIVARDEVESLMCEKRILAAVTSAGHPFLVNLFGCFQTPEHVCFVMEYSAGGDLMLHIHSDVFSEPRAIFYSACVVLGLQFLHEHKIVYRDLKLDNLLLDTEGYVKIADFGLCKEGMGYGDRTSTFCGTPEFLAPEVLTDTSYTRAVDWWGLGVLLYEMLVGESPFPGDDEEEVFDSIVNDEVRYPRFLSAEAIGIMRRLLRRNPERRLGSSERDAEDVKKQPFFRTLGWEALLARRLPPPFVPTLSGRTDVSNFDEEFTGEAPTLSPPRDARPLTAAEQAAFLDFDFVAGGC
Assay [10] concerns the target TRAF2 and NCK-interacting protein kinase (Homo sapiens, UniProt Q9UKE5).
Assay [11] has as its target T4, Uncharacterized protein FLJ45252 (Homo sapiens, UniProt Q6ZSR9).
T4 sequence (Q6ZSR9 whole entry): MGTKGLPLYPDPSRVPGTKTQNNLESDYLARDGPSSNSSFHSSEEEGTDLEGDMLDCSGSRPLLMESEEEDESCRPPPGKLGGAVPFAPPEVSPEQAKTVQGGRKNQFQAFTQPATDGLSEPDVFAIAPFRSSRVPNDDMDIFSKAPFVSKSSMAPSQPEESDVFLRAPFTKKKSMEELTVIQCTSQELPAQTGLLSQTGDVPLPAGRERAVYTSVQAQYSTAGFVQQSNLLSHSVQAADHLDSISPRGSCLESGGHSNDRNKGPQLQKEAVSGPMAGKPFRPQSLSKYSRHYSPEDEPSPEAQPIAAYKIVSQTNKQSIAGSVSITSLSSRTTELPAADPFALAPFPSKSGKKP
The conditions noted are these: read-out: Kd apparent; k-562, colo 205, sk-n-be(2) and mv-4-11.

Structures can show the parent of a compound that is named as a salt. Calls of active or inactive are those of the source. Rule as the data show it, for most assays here: actives have a measured Kd and inactives only a lower limit.
Also: in the data inactive means no Kd found up to 30 µM.

TRAF2 and NCK-interacting protein kinase, sequence (Q9UKE5 whole entry): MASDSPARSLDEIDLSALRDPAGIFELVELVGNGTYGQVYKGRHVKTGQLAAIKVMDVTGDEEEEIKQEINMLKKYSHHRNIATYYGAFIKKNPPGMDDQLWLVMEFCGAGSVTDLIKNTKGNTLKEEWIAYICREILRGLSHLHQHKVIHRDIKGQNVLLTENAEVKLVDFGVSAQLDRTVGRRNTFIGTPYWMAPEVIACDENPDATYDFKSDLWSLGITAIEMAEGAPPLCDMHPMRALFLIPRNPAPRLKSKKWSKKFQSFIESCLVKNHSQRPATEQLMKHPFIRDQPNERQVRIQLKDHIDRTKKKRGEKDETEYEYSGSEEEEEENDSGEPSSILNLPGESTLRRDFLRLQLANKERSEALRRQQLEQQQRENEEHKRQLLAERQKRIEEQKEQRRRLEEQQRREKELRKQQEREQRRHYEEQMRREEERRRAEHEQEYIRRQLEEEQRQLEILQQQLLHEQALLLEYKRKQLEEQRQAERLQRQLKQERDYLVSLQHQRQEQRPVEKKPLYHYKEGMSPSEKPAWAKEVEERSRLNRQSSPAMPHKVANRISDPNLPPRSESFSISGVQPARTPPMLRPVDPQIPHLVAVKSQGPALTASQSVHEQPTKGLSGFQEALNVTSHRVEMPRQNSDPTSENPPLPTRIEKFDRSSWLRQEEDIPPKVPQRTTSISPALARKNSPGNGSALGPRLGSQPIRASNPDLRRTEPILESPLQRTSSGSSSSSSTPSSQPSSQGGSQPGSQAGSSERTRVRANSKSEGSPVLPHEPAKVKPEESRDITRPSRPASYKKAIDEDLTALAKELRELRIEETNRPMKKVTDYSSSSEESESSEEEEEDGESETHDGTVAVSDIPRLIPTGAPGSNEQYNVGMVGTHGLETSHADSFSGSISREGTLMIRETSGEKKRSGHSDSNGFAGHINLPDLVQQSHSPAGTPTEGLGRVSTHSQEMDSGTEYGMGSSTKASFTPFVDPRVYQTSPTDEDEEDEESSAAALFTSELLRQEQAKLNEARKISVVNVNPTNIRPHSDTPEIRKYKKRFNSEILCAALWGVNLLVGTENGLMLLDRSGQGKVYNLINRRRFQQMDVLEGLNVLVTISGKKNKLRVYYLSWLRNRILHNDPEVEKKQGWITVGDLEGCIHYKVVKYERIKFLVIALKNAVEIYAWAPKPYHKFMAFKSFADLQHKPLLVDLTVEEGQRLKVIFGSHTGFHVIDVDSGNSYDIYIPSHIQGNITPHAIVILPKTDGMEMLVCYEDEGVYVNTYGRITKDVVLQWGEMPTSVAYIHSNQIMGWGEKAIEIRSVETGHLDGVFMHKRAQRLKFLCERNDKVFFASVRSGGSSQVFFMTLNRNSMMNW
Putative heat shock protein HSP 90-beta 2, sequence (Q58FF8 whole entry, canonical isoform): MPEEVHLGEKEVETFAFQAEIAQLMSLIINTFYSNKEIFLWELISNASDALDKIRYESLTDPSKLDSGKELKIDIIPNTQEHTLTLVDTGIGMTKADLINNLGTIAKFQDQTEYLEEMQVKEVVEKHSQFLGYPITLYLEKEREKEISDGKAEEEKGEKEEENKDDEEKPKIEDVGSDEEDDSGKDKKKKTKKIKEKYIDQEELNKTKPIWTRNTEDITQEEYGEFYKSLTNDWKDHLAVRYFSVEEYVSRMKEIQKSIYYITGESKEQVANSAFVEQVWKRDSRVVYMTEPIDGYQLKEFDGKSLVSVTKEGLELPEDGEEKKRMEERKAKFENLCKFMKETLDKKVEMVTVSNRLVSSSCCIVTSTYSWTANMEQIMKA
Calcium/calmodulin-dependent protein kinase type II subunit delta, sequence (Q13557 whole entry): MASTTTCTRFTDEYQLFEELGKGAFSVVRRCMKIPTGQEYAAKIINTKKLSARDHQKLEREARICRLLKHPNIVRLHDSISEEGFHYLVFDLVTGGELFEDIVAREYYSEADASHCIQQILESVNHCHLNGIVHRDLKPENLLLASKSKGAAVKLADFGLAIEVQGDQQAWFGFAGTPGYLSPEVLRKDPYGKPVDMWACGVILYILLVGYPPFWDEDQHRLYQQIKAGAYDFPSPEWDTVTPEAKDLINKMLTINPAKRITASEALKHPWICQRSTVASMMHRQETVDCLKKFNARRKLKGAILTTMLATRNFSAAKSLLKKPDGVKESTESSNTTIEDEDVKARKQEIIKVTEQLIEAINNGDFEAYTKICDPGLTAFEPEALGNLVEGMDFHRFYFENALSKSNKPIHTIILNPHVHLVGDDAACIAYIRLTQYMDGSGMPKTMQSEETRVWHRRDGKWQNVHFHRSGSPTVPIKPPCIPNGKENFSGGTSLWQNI
Cyclin-dependent kinase 7, sequence (P50613 whole entry, canonical isoform): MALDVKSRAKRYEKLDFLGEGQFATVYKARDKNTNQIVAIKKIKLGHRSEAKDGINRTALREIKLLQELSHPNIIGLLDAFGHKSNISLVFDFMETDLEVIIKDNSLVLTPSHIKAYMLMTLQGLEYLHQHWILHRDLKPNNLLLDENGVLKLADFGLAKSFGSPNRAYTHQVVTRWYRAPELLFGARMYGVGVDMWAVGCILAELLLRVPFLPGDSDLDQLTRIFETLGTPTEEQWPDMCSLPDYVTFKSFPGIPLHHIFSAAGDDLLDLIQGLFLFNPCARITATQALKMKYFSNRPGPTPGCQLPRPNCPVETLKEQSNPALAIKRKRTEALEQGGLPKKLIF

Consider `CCn1c(C(=O)N(C2CC2)C2CC2)cc2c3c(ncn3C)c(Nc3cc(C)n(C)n3)nc21` [BMS-911543], for which the Kd in assay [1], in assay [2], in [3], in [4], in [5] and in [6] was > 30 µM (inactive) in each case. Further, the Kd in assay [7], in assay [8], in assay [9], in assay [10] and in assay [11] was > 30 µM (inactive) in each case.

With `COc1cc2ncnc(Oc3cccc(NC(=O)Nc4cc(C(C)(C)C(F)(F)F)on4)c3)c2cc1OC` [CEP-32496], the Kd in [1], in assay [2], in assay [3], in assay [4], in [5] and in [6] was > 30 µM (inactive) in each case. For the same molecule, the Kd in [7], in assay [8], in assay [9], in [10] and in assay [11] was > 30 µM (inactive) throughout.

Turning to `COCC(=O)NC/C=C/c1ccc2ncnc(Nc3ccc(Oc4ccc(C)nc4)c(C)c3)c2c1` [CP-724714], the Kd in assay [1], in assay [2], in assay [3], in assay [4], in assay [5] and in assay [6] was > 30 µM (inactive) throughout. For the same molecule, the Kd in [7], in assay [8], in [9], in assay [10] and in assay [11] was > 30 µM (inactive) throughout.

Consider `CCS(=O)(=O)N1CCN(c2ccc(Nc3ncc(C(N)=O)c(NC4CC4)n3)cc2)CC1` [Cerdulatinib Hydrochloride], for which the Kd in assay [1], in [2], in assay [3], in assay [4], in [5] and in [6] was > 30 µM (inactive) throughout. Besides, the Kd in assay [7] was > 30 µM (inactive); in assay [8], > 30 µM (inactive); in [9], > 30 µM (inactive); in assay [10], > 30 µM (inactive); in assay [11], 0.0007 µM (active).

With `Cc1nc2cc(-n3ncc(C(=O)c4cc5ccccc5[nH]4)c3N)ccc2[nH]1` [FGFR INHIBITOR DEBIO 1347], the Kd in assay [1], in assay [2], in [3], in assay [4], in [5] and in assay [6] was > 30 µM (inactive) each time. Also, the Kd in [7], in assay [8], in assay [9], in assay [10] and in assay [11] was > 30 µM (inactive) in each case.

As for `COc1ccc(S(=O)(=O)N(C(C)=O)c2ccccc2/C=C/c2cc[n+]([O-])cc2)cc1` [HMN-214], the Kd in assay [1], in [2], in [3], in assay [4], in assay [5] and in assay [6] was > 30 µM (inactive) throughout. Also, the Kd in [7], in [8], in assay [9], in assay [10] and in [11] was > 30 µM (inactive) throughout.

In the case of `O=C(Nc1cc(C(F)(F)F)cc(C(F)(F)F)c1)c1cc(Cl)ccc1O` [IMD-0354], the Kd in assay [1], in assay [2], in assay [3], in assay [4], in assay [5] and in [6] was > 30 µM (inactive) throughout. The Kd in assay [7], in assay [8], in assay [9], in [10] and in assay [11] was > 30 µM (inactive) throughout.

As for `CNC(=O)c1cccc2cc(Oc3ccnc4cc(OCC5(N)CC5)c(OC)cc34)ccc12` [LUCITANIB], the Kd in [1], in assay [2], in [3], in assay [4], in assay [5] and in [6] was > 30 µM (inactive) in each case. For the same molecule, the Kd in assay [7], in assay [8], in assay [9], in assay [10] and in [11] was > 30 µM (inactive) each time.

Take `Cn1cc(-c2cnc3ccc4ccc(CS(=O)(=O)NCc5ccccn5)cc4c(=O)c3c2)cn1` [MK-8033]: the Kd in [1], in assay [2], in assay [3], in assay [4], in [5] and in assay [6] was > 30 µM (inactive) each time. The Kd in assay [7], in [8], in assay [9], in assay [10] and in [11] was > 30 µM (inactive) in each case.

The values above are taken from ChEMBL document CHEMBL3991601, “The target landscape of clinical kinase drugs” (Science, 2017).
